# Reference: PubChem BioAssay (NCI)
#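 Results reflect a 48-hour exposure of cells in 96-well plates to compound at five concentrations. The concentration for 50% growth inhibition is given as GI50. TGI marks complete inhibition of growth.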
# What was measured:
# Assay in all cases: inhibition of tumour cell growth, NCI panel, 48 h
# OVCAR-3 ovarian = system: OVCAR-3 ovarian
# LOX IMVI melanoma = system: LOX IMVI melanoma
# HOP-62 NSCLC = system: HOP-62 NSCLC
# NCI-H23 lung = system: NCI-H23 lung
# M14 melanoma = system: M14 melanoma
# KM12 colon = system: KM12 colon
# NCI-H226 lung = system: NCI-H226 lung
# COLO 205 colon = system: COLO 205 colon
# SN12C renal = system: SN12C renal
# MDA-MB-435 = system: MDA-MB-435
# SR leukemia = system: SR leukemia
# T-47D breast = system: T-47D breast
# HCC-2998 colon = system: HCC-2998 colon
# SNB-75 CNS = system: SNB-75 CNS
# CAKI-1 renal = system: CAKI-1 renal
# UO-31 renal = system: UO-31 renal
# SF-539 CNS = system: SF-539 CNS
# A498 renal = system: A498 renal
# HT29 colon = system: HT29 colon
# NCI/ADR-RES ovarian = system: NCI/ADR-RES ovarian
# SK-MEL-28 melanoma = system: SK-MEL-28 melanoma
# HCT-15 colon = system: HCT-15 colon
# SK-MEL-2 melanoma = system: SK-MEL-2 melanoma
# RXF 393 renal = system: RXF 393 renal
# 786-0 renal = system: 786-0 renal
# A549 NSCLC = system: A549 NSCLC
# MALME-3M melanoma = system: MALME-3M melanoma
# UACC-62 melanoma = system: UACC-62 melanoma
# MOLT-4 leukemia = system: MOLT-4 leukemia
# SK-MEL-5 melanoma = system: SK-MEL-5 melanoma
# MCF7 breast = system: MCF7 breast
# OVCAR-5 ovarian = system: OVCAR-5 ovarian
# NCI-H460 lung = system: NCI-H460 lung
# HCT-116 colon = system: HCT-116 colon
# SF-295 CNS = system: SF-295 CNS
# NCI-H522 lung = system: NCI-H522 lung
# HL-60(TB) leukemia = system: HL-60(TB) leukemia
# K-562 leukemia = system: K-562 leukemia
# HOP-92 NSCLC = system: HOP-92 NSCLC
# OVCAR-8 ovarian = system: OVCAR-8 ovarian
# SW-620 colon = system: SW-620 colon
# IGROV1 ovarian = system: IGROV1 ovarian
# U251 CNS = system: U251 CNS
# CCRF-CEM leukemia = system: CCRF-CEM leukemia
# DU-145 prostate = system: DU-145 prostate
# MDA-MB-231 breast = system: MDA-MB-231 breast
# TK-10 renal = system: TK-10 renal
# SK-OV-3 ovarian = system: SK-OV-3 ovarian
# PC-3 prostate = system: PC-3 prostate
# SF-268 CNS = system: SF-268 CNS
# ACHN renal = system: ACHN renal
# BT-549 breast = system: BT-549 breast
# HS 578T breast = system: HS 578T breast
# SNB-19 CNS = system: SNB-19 CNS
# UACC-257 melanoma = system: UACC-257 melanoma
# OVCAR-4 ovarian = system: OVCAR-4 ovarian
# RPMI-8226 leukemia = system: RPMI-8226 leukemia
# EKVX NSCLC = system: EKVX NSCLC
compound,measurement,setting,value
COC(=O)c1c2c(c(C)[n+]([O-])c1C)C(=O)C(NCc1cccc(Cl)c1)=CC2=O,GI50,OVCAR-3 ovarian,322 nM
same,TGI,OVCAR-3 ovarian,1170 nM
same,GI50,LOX IMVI melanoma,1760 nM
same,TGI,LOX IMVI melanoma,5580 nM
same,GI50,HOP-62 NSCLC,2300 nM
same,TGI,HOP-62 NSCLC,9620 nM
same,GI50,NCI-H23 lung,1230 nM
same,TGI,NCI-H23 lung,3250 nM
same,GI50,M14 melanoma,1060 nM
same,TGI,M14 melanoma,2400 nM
same,GI50,KM12 colon,1560 nM
same,TGI,KM12 colon,9730 nM
same,GI50,NCI-H226 lung,2100 nM
same,TGI,NCI-H226 lung,4670 nM
same,GI50,COLO 205 colon,388 nM
same,TGI,COLO 205 colon,1550 nM
same,GI50,SN12C renal,1020 nM
same,TGI,SN12C renal,2440 nM
same,GI50,MDA-MB-435,344 nM
same,TGI,MDA-MB-435,1130 nM
same,GI50,SR leukemia,1850 nM
same,TGI,SR leukemia,> 100000 nM
same,GI50,T-47D breast,1690 nM
same,TGI,T-47D breast,4410 nM
same,GI50,HCC-2998 colon,1820 nM
same,TGI,HCC-2998 colon,4460 nM
same,GI50,SNB-75 CNS,2100 nM
same,TGI,SNB-75 CNS,5070 nM
same,GI50,CAKI-1 renal,1970 nM
same,TGI,CAKI-1 renal,5630 nM
same,GI50,UO-31 renal,1530 nM
same,TGI,UO-31 renal,3230 nM
same,GI50,SF-539 CNS,1800 nM
same,TGI,SF-539 CNS,3260 nM
same,GI50,A498 renal,1560 nM
same,TGI,A498 renal,3180 nM
same,GI50,HT29 colon,634 nM
same,TGI,HT29 colon,> 100000 nM
same,GI50,NCI/ADR-RES ovarian,1640 nM
same,TGI,NCI/ADR-RES ovarian,5810 nM
same,GI50,SK-MEL-28 melanoma,3170 nM
same,TGI,SK-MEL-28 melanoma,15000 nM
same,GI50,HCT-15 colon,1100 nM
same,TGI,HCT-15 colon,2750 nM
same,GI50,SK-MEL-2 melanoma,1950 nM
same,TGI,SK-MEL-2 melanoma,4600 nM
same,GI50,RXF 393 renal,1480 nM
same,TGI,RXF 393 renal,3370 nM
same,GI50,786-0 renal,2650 nM
same,TGI,786-0 renal,13900 nM
same,GI50,A549 NSCLC,1940 nM
same,TGI,A549 NSCLC,6170 nM
same,GI50,MALME-3M melanoma,171 nM
same,TGI,MALME-3M melanoma,432 nM
same,GI50,UACC-62 melanoma,1240 nM
same,TGI,UACC-62 melanoma,2840 nM
same,GI50,MOLT-4 leukemia,2010 nM
same,TGI,MOLT-4 leukemia,5680 nM
same,GI50,SK-MEL-5 melanoma,200 nM
same,TGI,SK-MEL-5 melanoma,448 nM
same,GI50,MCF7 breast,1100 nM
same,TGI,MCF7 breast,2770 nM
same,GI50,OVCAR-5 ovarian,1810 nM
same,TGI,OVCAR-5 ovarian,3630 nM
same,GI50,NCI-H460 lung,659 nM
same,TGI,NCI-H460 lung,7920 nM
same,GI50,HCT-116 colon,679 nM
same,TGI,HCT-116 colon,4900 nM
same,GI50,SF-295 CNS,1310 nM
same,TGI,SF-295 CNS,2720 nM
same,GI50,NCI-H522 lung,1910 nM
same,TGI,NCI-H522 lung,4620 nM
same,GI50,HL-60(TB) leukemia,628 nM
same,TGI,HL-60(TB) leukemia,3550 nM
same,GI50,K-562 leukemia,2170 nM
same,TGI,K-562 leukemia,> 100000 nM
same,GI50,HOP-92 NSCLC,2220 nM
same,TGI,HOP-92 NSCLC,4540 nM
same,GI50,OVCAR-8 ovarian,1520 nM
same,TGI,OVCAR-8 ovarian,9780 nM
same,GI50,SW-620 colon,1010 nM
same,TGI,SW-620 colon,4310 nM
same,GI50,IGROV1 ovarian,1170 nM
same,TGI,IGROV1 ovarian,2980 nM
same,GI50,U251 CNS,2100 nM
same,TGI,U251 CNS,7520 nM
same,GI50,CCRF-CEM leukemia,2290 nM
same,TGI,CCRF-CEM leukemia,8530 nM
same,GI50,DU-145 prostate,1910 nM
same,TGI,DU-145 prostate,4200 nM
same,GI50,MDA-MB-231 breast,1180 nM
same,TGI,MDA-MB-231 breast,4880 nM
same,GI50,TK-10 renal,3690 nM
same,TGI,TK-10 renal,15300 nM
same,GI50,SK-OV-3 ovarian,3050 nM
same,TGI,SK-OV-3 ovarian,12800 nM
same,GI50,PC-3 prostate,1620 nM
same,TGI,PC-3 prostate,17900 nM
same,GI50,SF-268 CNS,2530 nM
same,TGI,SF-268 CNS,12900 nM
same,GI50,ACHN renal,1520 nM
same,TGI,ACHN renal,3580 nM
same,GI50,BT-549 breast,1540 nM
same,TGI,BT-549 breast,3070 nM
same,GI50,HS 578T breast,2320 nM
same,TGI,HS 578T breast,6910 nM
same,GI50,SNB-19 CNS,2450 nM
same,TGI,SNB-19 CNS,7800 nM
same,GI50,UACC-257 melanoma,701 nM
same,TGI,UACC-257 melanoma,2280 nM
same,GI50,OVCAR-4 ovarian,507 nM
same,TGI,OVCAR-4 ovarian,1850 nM
same,GI50,RPMI-8226 leukemia,2140 nM
same,TGI,RPMI-8226 leukemia,7810 nM
same,GI50,EKVX NSCLC,1510 nM
same,TGI,EKVX NSCLC,3610 nM
